Test results: US20250215029A1 (Recludix Pharma, Inc., priority 2022, published 2025)
Read-outs that look alike come from different tables or passages of the source.

Columns and labels:
[1] = target: T1, pY705-STAT3 in PBMC (Homo sapiens, UniProt P40763); assay: MSD-pSTAT-PBMC Assay (pSTAT3, IL-6 stimulated); type: cell-based; conditions: PBMC, compound 3 hrs, then 10 ng/mL IL-6 for 10 min
T1 construct: Cryopreserved Peripheral Blood Mononuclear Cells (PBMC) are from AllCells; host or cells: cryopreserved PBMC
In short: (§1)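 MSD electrochemiluminescence read-out: total STAT captured, probed with anti-pY641-STAT6 or anti-pY705-STAT3. Human PBMC, 3 h compound pretreatment, 10 min stimulation (IL-4 1 ng/mL or IL-6 10 ng/mL). Unstimulated signal subtracted, DMSO-normalized, variable-slope IC50.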

[2] = target: T2, pY641-STAT6 in PBMC (Homo sapiens, UniProt P42226); assay: MSD-pSTAT-PBMC Assay (pSTAT6, IL-4 stimulated); type: cell-based; conditions: compound 3 hrs, then 1 ng/mL IL-4 for 10 min
T2 construct: Cryopreserved Peripheral Blood Mononuclear Cells (PBMC) are from AllCells; host or cells: cryopreserved PBMC
T2 sequence (P42226 1-847): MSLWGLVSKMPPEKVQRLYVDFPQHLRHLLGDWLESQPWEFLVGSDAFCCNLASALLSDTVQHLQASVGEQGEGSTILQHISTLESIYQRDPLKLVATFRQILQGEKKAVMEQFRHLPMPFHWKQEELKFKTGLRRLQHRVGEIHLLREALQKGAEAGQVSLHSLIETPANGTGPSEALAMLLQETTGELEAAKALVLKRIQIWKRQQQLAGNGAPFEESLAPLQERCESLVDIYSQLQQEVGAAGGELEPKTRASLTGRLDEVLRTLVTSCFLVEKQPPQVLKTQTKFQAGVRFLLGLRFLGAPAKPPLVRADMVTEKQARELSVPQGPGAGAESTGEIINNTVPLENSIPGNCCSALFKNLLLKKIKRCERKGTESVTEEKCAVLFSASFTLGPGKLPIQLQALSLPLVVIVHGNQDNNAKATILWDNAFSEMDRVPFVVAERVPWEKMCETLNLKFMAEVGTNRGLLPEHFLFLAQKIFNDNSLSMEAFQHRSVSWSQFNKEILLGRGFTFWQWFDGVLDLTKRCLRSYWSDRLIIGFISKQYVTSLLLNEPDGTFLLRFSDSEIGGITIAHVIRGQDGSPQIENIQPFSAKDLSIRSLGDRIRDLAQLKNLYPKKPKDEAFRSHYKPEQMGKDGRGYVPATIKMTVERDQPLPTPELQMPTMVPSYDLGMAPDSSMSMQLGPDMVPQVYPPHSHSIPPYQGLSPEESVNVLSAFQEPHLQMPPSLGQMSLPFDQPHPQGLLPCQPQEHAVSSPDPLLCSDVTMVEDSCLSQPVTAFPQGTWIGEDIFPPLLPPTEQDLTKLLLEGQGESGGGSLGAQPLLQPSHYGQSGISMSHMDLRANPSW
In short: as §1

[3] = PBMC, Table 1114, read-out: pSTAT6
[4] = PBMC, Table 115, read-out: STAT6

T1 sequence (P40763 whole entry): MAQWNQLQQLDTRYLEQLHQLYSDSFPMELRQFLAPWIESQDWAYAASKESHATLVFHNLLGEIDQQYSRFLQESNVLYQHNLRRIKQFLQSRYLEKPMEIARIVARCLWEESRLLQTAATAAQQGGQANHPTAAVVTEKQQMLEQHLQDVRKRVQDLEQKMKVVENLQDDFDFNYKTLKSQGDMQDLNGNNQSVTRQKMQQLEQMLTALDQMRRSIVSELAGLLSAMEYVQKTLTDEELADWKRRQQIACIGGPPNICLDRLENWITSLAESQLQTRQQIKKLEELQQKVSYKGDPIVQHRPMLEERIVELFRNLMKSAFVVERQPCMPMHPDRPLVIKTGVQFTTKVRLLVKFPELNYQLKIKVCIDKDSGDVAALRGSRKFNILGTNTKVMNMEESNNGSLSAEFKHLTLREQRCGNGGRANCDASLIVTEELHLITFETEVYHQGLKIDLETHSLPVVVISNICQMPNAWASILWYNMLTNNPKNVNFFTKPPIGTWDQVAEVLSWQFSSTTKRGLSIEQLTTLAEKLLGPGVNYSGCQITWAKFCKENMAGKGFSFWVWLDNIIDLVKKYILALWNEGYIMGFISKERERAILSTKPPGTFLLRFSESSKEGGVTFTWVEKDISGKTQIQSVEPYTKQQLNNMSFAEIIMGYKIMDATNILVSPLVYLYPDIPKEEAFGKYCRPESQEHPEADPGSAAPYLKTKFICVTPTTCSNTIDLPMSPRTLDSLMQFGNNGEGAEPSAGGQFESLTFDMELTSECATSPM

Row | SMILES | IC50 ([1]; Table 1114, read-out: pSTAT3) [nM] | IC50 [2, 3] [nM] | IC50 ([1]; Table 115, read-out: STAT3) [nM] | further results
1 | CC(C)CC(=O)SCCOP(=O)(OCCSC(=O)CC(C)C)C(F)(F)c1ccc2ccc(C(=O)N[C@H]3CCCC[C@H]4CC[C@@H](C(=O)N5CC(n6ccnn6)[C@H](O)C5)N4C3=O)cc2c1 (relative stereo) [Compound 1086, S,S′-((((difluoro(7-(((3S,6S,10aS)-3-((rel-trans)-3-hydroxy-4-(1H-1,2,3-triazol-1-yl)pyrrolidine-1-carbonyl)-5-oxodecahydro-pyrrolo [1,2-a]azocin-6-yl)carbamoyl)naphthalen-2-yl)methyl)phosphoryl)bis(oxy))bis(ethane-2,1-diyl)) bis(3-methylbutanethioate)] | – | – | < 100 | IC50 [2, 4]: 100 to 1000 nM
2 | CC(C)(C)C(=O)SCCOP(=O)(OCCSC(=O)C(C)(C)C)C(F)c1ccc2sc(C(=O)N[C@H]3CCC[C@H]4CC[C@@H](C(=O)N5CC(c6cnccc6F)C5)N4C3=O)cc2c1 (stereo partly drawn) [Compound 984, S,S′-((((fluoro(2-(((3S,6S,9aS)-3-(3-(4-fluoropyridin-3-yl)azetidine-1-carbonyl)-5-oxooctahydro-1H-pyrrolo[1,2-a]azepin-6-yl)carbamoyl)benzo [b]thiophen-5-yl)methyl)phosphoryl)bis(oxy))bis(ethane-2,1-diyl))bis(2,2-dimethyl-propanethioate)] | – | – | < 100 | IC50 [2, 4]: > 3000 nM
3 | CC(C)OC(=O)[C@H](C)NP(=O)(Cc1ccc2sc(C(=O)N[C@H]3CCCC[C@H]4CC[C@@H](C(=O)N5C[C@H](c6cc[nH]c(=O)c6)[C@@H](C#N)C5)N4C3=O)cc2c1)Oc1ccccc1 (single isomer, unassigned) [Compound 197, isopropyl (((2-(((3S,6S,10aS)-3-((3R,4S or 3S,4R)-3-cyano-4-(2-oxo-1,2-dihydro-pyridin-4-yl)pyrrolidine-1-carbonyl)-5-oxodecahydro-pyrrolo[1,2-a]azocin-6-yl)carbamoyl)benzo[b]thiophen-5-yl)methyl) (phenoxy)phosphoryl)-L-alaninate] | > 3000 | – | – | IC50 ([2]; pSTAT6, PBMC, Table 1114): > 3000 nM
4 | CCCC(=O)SCCOP(=O)(Oc1cccnc1)C(F)(F)c1ccc2sc(C(=O)N[C@H]3CCCC[C@H]4CC[C@@H](C(=O)N5C[C@@H](C#N)[C@H](c6ccccc6)C5)N4C3=O)cc2c1 (single isomer, unassigned) [Compound 139, S-(2-((((2-(((3S,6S,10aS)-3-((3S,4R or 3R,4S)-3-cyano-4-phenylpyrrolidine-1-carbonyl)-5-oxodecahydro-pyrrolo[1,2-a]azocin-6-yl)carbamoyl)benzo[b]thiophen-5-yl)difluoromethyl) (pyridin-3-yloxy)phosphoryl)oxy)ethyl) butanethioate] | 100 to 1000 | – | – | IC50 ([2]; pSTAT6, PBMC, Table 1114): < 100 nM
5 | CC(C)(CO)C(=O)SCCOP(=O)(Cc1ccc2sc(C(=O)NC3CCCCC4CCC(C(=O)N5CC(C#N)C(c6ccccc6)C5)N4C3=O)cc2c1)OCCSC(=O)C(C)(C)CO (single isomer, unassigned) [Compound 199, S,S′-(((((2-(((3S,6S,10aS)-3-((3S,4R or 3R,4S)-3-cyano-4-phenylpyrrolidine-1-carbonyl)-5-oxodecahydropyrrolo[1,2-a]azocin-6-yl)carbamoyl)benzo[b]thiophen-5-yl)methyl)phosphoryl)bis(oxy))bis(ethane-2,1-diyl))bis(3-hydroxy-2,2-dimethylpropanethioate)trifluoroacetate] | > 3000 | > 3000 | – | –
6 | CC(C)COC(=O)[C@H](C)NP(=O)(Cc1ccc2ccc(C(=O)N[C@H]3CCCC[C@H]4CC[C@@H](C(=O)N5CC(c6ccccc6)CC56CC6)N4C3=O)cc2c1)Oc1ccccc1 (stereo partly drawn) [Compound 410, isobutyl (((7-(((3S,6S,10aS)-5-oxo-3-(6-phenyl-4-azaspiro[2.4]heptane-4-carbonyl)decahydropyrrolo[1,2-a]azocin-6-yl)carbamoyl)naphthalen-2-yl)methyl)(phenoxy)phosphoryl)-L-alaninate] | – | – | > 3000 | IC50 ([2]; STAT6, PBMC, Table 115): > 3000 nM
7 | C[C@H](NP(=O)(Cc1ccc2ccc(C(=O)N[C@H]3CCCC[C@H]4CC[C@@H](C(=O)N5CC(c6ccccc6)CC56CC6)N4C3=O)cc2c1)Oc1ccccc1)C(=O)OCc1ccccc1 (stereo partly drawn) [Compound 397, benzyl (((7-(((3S,6S,10aS)-5-oxo-3-(6-phenyl-4-azaspiro[2.4]heptane-4-carbonyl)decahydropyrrolo[1,2-a]azocin-6-yl)carbamoyl)naphthalen-2-yl)methyl)(phenoxy)phosphoryl)-L-alaninate] | – | – | > 3000 | IC50 ([2]; STAT6, PBMC, Table 115): > 3000 nM
8 | CC(C)(C)C(=O)OCOP(=O)(OCOC(=O)C(C)(C)C)C(F)(F)c1ccc2sc(C(=O)N[C@H]3CCCC[C@H]4CC[C@@H](C(=O)N5CCN(C(=O)c6cn[nH]c6)CC5)N4C3=O)cc2c1 [Compound 192, ((((2-(((3S,6S,10aS)-3-(4-(1H-pyrazole-4-carbonyl)piperazine-1-carbonyl)-5-oxodecahydro-pyrrolo[1,2-a]azocin-6-yl)carbamoyl)benzo[b]thiophen-5-yl)difluoro-methyl)phos-phoryl)bis(oxy)) bis(methylene) bis(2,2-dimethyl-propanoate)] | 100 to 1000 | 1000 to 3000 | – | –
9 | CCCCOC(=O)[C@H](C)NP(=O)(Oc1cccc2ccccc12)C(F)(F)c1ccc2ccc(C(=O)N[C@H]3CCCC[C@H]4CC[C@@H](C(=O)N5CC(c6ccccc6)CC56CC6)N4C3=O)cc2c1 (stereo partly drawn) [Compound 406, butyl ((difluoro(7-(((3S,6S,10aS)-5-oxo-3-(6-phenyl-4-azaspiro[2.4]heptane-4-carbonyl)decahydropyrrolo[1,2-a]azocin-6-yl)carbamoyl)naphthalen-2-yl)methyl) (naphthalen-1-yloxy)phosphoryl)-L-alaninate] | – | – | > 3000 | IC50 ([2]; STAT6, PBMC, Table 115): 1000 to 3000 nM

Continued, in another order:

Row | IC50 ([1]; Table 1114, read-out: pSTAT3) [nM] | IC50 [2, 3] [nM] | SMILES | IC50 ([1]; Table 115, read-out: STAT3) [nM] | further results
10 | < 100 | 100 to 1000 | CC(C)(C)C(=O)OCOP(=O)(OCOC(=O)C(C)(C)C)C(F)(F)c1ccc2sc(C(=O)N[C@H]3CCCC[C@H]4CC[C@@H](C(=O)N5CC(F)(c6ccccc6)C5)N4C3=O)cc2c1 [Compound 174, (((difluoro(2-(((3S,6S,10aS)-3-(3-fluoro-3-phenylazetidine-1-carbonyl)-5-oxodecahydropyrrolo [1,2-a]azocin-6-yl)carbamoyl)benzo[b]thiophen-5-yl)methyl)phosphoryl)bis(oxy)) bis(methylene) bis(2,2-dimethylpropanoate)] | – | –
11 | 100 to 1000 | < 100 | CC(C)(C)C(=O)OCOP(=O)(OCOC(=O)C(C)(C)C)C(F)(F)c1ccc2sc(C(=O)N[C@H]3CCCCC4CC[C@@H](C(=O)N5C[C@H](C6CCCCC6)[C@@H](C#N)C5)N4C3=O)cc2c1 (relative stereo) [Compound 143, ((((2-(((3S,6S,10aS)-3-(rel-(trans)-3-cyano-4-cyclohexyl-pyrrolidine-1-carbonyl)-5-oxodecahydro-pyrrolo[1,2-a]azocin-6-yl)carbamoyl)benzo[b]thiophen-5-yl)difluoromethyl)phosphoryl)bis (oxy))bis (methylene) bis (2,2-dimethyl-propanaote)] | – | –
12 | > 3000 | > 3000 | CC(C)CC(=O)SCCCCOP(=O)(OCCCCSC(=O)CC(C)C)C(F)(F)c1ccc2sc(C(=O)N[C@H]3CCCC[C@H]4CC[C@@H](C(=O)N5CC(C#N)C(c6ccccc6)C5)N4C3=O)cc2c1 (single isomer, unassigned) [Compound 153, S,S′-(((((2-(((3S,6S,10aS)-3-((3S,4R or 3R,4S)-3-cyano-4-phenylpyrrolidine-1-carbonyl)-5-oxodecahydro-pyrrolo[1,2-a]azocin-6-yl)carbamoyl)benzo[b]thiophen-5-yl)difluoromethyl)phosphoryl)bis (oxy))bis(butane-4,1-diyl)) bis(3-methylbutane thioate)] | – | –
